Data from patent US20090226536A1, “METHODS AND MATERIALS RELATING TO ENHANCED PRODUCTION OF DOPAMINE NEURONS” (priority 2004, published 2009).

Tests used:
[1] = tested on: rat VM E14.5 precursor cultures; assay: TH immunostaining, number of TH+ cells in VM precursor cultures; assay type: cell-based; details: for dose of maximal effect / optimal dose to increase TH+ cell numbers: dose-response in E14.5 VM precursors; for increase in the number of TH positive cells (maximal effect): rat VM E14.5 precursor cultures, three days in vitro, at 3-5 μM I3M, 15 μM KP
Experimental: (§1) E14.5 VMs obtained from time-mated Sprague-Dawley rats (ethical approval for animal experimentation was granted by Stockholms Norra Djurförsöks Etiska Nämnd) were dissected, mechanically dissociated, and plated at a final density of 1×10^5 cells per cm2 on poly-D-lysine coated plates (Falcon) in serum-free N2 medium, consisting of a 1:1 mixture of F12 and MEM (Invitrogen) with 5 μg/ml insulin, 100 μg/ml transferrin, 100 μM putrescine, 20 nM progesterone, 30 nM selenium, 6 mg/ml glucose and 1 mg/ml BSA (all purchased from Sigma). Cultures were kept three days in vitro, in a 37° C. incubator, at 5% CO2, before fixation. MN9D and SN4741 cells were grown as described in Choi et al., 1991 and Son et al., 1999. MN9D cultures were fixed after four days in vitro. I3M and KP (Alexis Biochemicals, Göteborg, Sweden) were diluted in DMSO and added to the cultures at the time of plating. […] 10 μM BrdU was added to the culture media 6 hours prior to fixation.
(§2) Cells were fixed in ice-cold 4% paraformaldehyde for 20 minutes and washed in PBS. For a detailed protocol of immunocytochemistry, see Castelo-Branco et al., 2003 (7). The following primary and secondary antibodies were used: mouse α-TH (1:1000 dilution—Immunostar), rabbit α-TH (1:250-Pelfreeze), mouse α-β-III-tubulin (1:1000-Promega), rabbit α.Nurr1 (1:1000-Santa Cruz), mouse α-MAP2 (1:200—Sigma), rabbit A-GFAP (1:400-Dako), mouse α.active-caspase III (1:100-Cell Signaling), mouse α-BrdU (1:100-Dako) and rat α.BrdU (1:100-Abcam), biotinylated 1:500, Cyanine-2 or rhodamine-coupled horse-α-mouse IgG 1:200 or goat α-rabbit IgG 1:200, from Vector and Jackson Laboratories). At the end of the staining procedure, the cultures were incubated with Hoechst 33258 reagent for 10 minutes. BrdU immunocytochemistry included an incubation for 30 minutes with 2NHCL. Images were acquired from stained cells in PBS at room temperature with a Zeiss Axioplan 100M microscope (LD Achrostigmat 20×, 0.3 PH1. 0-2 and LD Achroplan 40×, 0.60 Korr PH2. 0-2) and collected with a Hamamatsu camera C4742-95 (with QED imaging software).
(§3) Quantitative immunocytochemical data represent the means±standard errors of counts from ten non-overlapping fields, in three wells per condition from three to five separate experiments. For the RT-PCR experiments, five separate experiments were analysed and for the GSK-3β inhibitors dose response, two sets of experiments were analysed. Statistical analysis was performed in Prism 4 (GraphPad software, San Diego, USA) as described in the figure legends, with […] significance for all tests assumed at the level of p<0.05 (*p<0.05; **0.01<p<0.001; ***p<0.001). Statistical tests were chosen according to the distribution of the sample population.

GSK-3β = molecular target: T1, GSK-3β (Mus musculus, UniProt Q9WV60); assay: Immunoblotting of GSK-3β protein levels in SN4741 cells; assay type: cell-based; details: 15 μM KP and 5 μM I3M for 24 hours
T1 construct: treatment of a DA precursor cell line derived from the substantia nigra, SN4741 (21) with KP or I3M led to a downregulation of GSK-3β protein levels; endogenous in cells; host or cells: SN4741 cells
T1 sequence (Q9WV60 whole entry): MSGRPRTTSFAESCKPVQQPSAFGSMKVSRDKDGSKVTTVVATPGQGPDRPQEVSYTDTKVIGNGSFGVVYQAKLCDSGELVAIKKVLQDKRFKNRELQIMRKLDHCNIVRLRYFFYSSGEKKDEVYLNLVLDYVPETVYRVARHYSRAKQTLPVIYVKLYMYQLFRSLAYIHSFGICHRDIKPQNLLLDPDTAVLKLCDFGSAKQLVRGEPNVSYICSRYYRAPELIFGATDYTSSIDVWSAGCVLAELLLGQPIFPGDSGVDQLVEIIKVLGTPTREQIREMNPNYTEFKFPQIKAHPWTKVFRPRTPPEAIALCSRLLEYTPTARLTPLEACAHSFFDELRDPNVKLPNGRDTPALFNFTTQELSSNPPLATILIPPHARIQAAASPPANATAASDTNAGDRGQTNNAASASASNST
Experimental: as §1
(§4) Cell were lysed for 15 min in a modified RIPA buffer containing 20 mM Tris (pH 7.5), 140 mM NaCl, 10% glycerol, 1% IGEPAL, 1 mM β-glycerol-phosphate, 1 mM Na3VO4 and complete protease inhibitors (Roche). Plates were scraped and the cell lysate was centrifuged in a microfuge for 5 min. […] Equal amounts of protein were analysed by polyacrylamide gel electrophoresis (10% polyacrylamide). […]

VM precursors = assay: Immunostaining for neuronal and glial differentiation (GFAP, TuJ1, MAP2, TH) of VM precursors; assay type: cell-based, rat; details: three days, 15 μM KP and 5 μM I3M
Experimental: as §1, §2, §3

VM precursor cultures = assay: Total cell number, proliferation (BrdU) and active Caspase 3 in VM precursor cultures; assay type: cell-based, rat; details: for active Caspase 3 immunostaining: VM precursor cultures; for active Caspase 3 immunostaining / proliferation (BrdU incorporation): 15 μM KP, 5 μM I3M; for proliferation (BrdU incorporation): VM precursors, 6 h BrdU pulse; for total number of VM cells (Hoechst 33258 staining): after 3 days in culture, 15 μM KP and 5 μM I3M
Experimental: as §1, §2, §3

β-catenin = assay: Immunoblotting of β-catenin protein in VM precursors; assay type: cell-based, rat; details: 15 μM KP or 5 μM I3M for 24 hours
Experimental: as §1, §4

TH = assay: Immunoblotting of TH protein in VM precursors; assay type: cell-based, rat; details: 15 μM KP or 5 μM I3M for 24 hours
Experimental: as §1, §4

GSK-3β and CDKs = details: at 3-5 μM I3M and 15 μM KP; refs (20, 13); cited from earlier work
MN9D cells = assay: MN9D cell number, proliferation and morphological differentiation; assay type: cell-based
Experimental: as §1, §2

c-ret mRNA = assay: Real time RT-PCR of c-ret mRNA in VM precursor cultures; assay type: cell-based, rat; details: 15 μM KP, three days in vitro
Description: Total RNA was isolated from E14.5 VM precursor cultures (2.5×10^6 cells in 6 cm2 dishes) treated with the GSK-3β inhibitors for three days in vitro. For a description of reverse transcription reaction, real-time RT-PCR and c-ret primer sequences, see Castelo-Branco et al., 2003 (7). Quantum RNA classical 18S internal standard was purchased from Ambion (Austin, USA) and PCR primers from DNA Technology A/S, Aarhus, Denmark. The following PCR programme was used for SYBR Green detection on the ABI PRISM 5700 Detection System (PE AppliedBiosystems, Foster City, Calif., USA): 94° C. for 2 min, 35-40 cycles of 94° C. for 30 s, 59° C. for 30s, 72° C. for 15s and 80° C. for 5s. Statistical analysis of the results was performed by a 2-tailed Wilcoxon signed rank test. Significance for all tests was assumed at the level of p<0.05 (*p<0.05; **0.01<p<0.001; ***p<0.001).

VM Nurr1+ precursors = assay: TH/Nurr1 double immunostaining, conversion of Nurr1+ precursors into TH+ neurons; assay type: cell-based, rat; details: three days after treatment with 15 μM KP
Experimental: as §1
Cells were fixed in ice-cold 4% paraformaldehyde for 20 minutes and washed in PBS. […]
Quantitative immunocytochemical data represent the means±standard errors of counts from ten non-overlapping fields, in three wells per condition from three to five separate experiments. For the RT-PCR experiments, five separate experiments were analysed and for the GSK-3β inhibitors dose response, two sets of experiments were analysed. […]

[2] = MN9D cells, 15 μM KP for four days

In the case of `O=C1Nc2ccccc2/C1=C1/Nc2ccccc2/C1=N\O` [I3M, Indirubin-3-monoxime], the “dose of maximal effect / optimal dose to increase TH+ cell numbers” value [1] is reported as 3 to 5 µM, the “increase in the number of TH positive cells (maximal effect)” value [1] is reported as “five” and the GSK-3β protein levels (GSK-3β) is reported as “decreases”. The “immature neurons (TuJ1 positive cells/Hoechst 33258)” value (VM precursors) was “increased”, the “number of mature neurons (MAP2 positive cells/Hoechst 33258)” value (VM precursors) was “increase” and the “proportion of TH+ DA neurons (TH+/TuJ1+ cells)” value (VM precursors) was “marked increase”. The “total number of astrocytes (GFAP positive cells/Hoechst 33258)” value (VM precursors) was “increased”, the “active Caspase 3 immunostaining” value (VM precursor cultures) was “reduced” and the “proliferation (BrdU incorporation)” value (VM precursor cultures) was “significantly decreased”. For the same compound, the “total number of VM cells (Hoechst 33258 staining)” value (VM precursor cultures) was “did not change”, the β-catenin protein levels (β-catenin) was “increased” and the TH protein levels (TH) was “increased”. For the same compound, the “kinase selectivity at the concentrations used” value (GSK-3β and CDKs) was “inhibits both GSK-3β and CDKs”.
With `O=C1Cc2c([nH]c3ccc(Br)cc23)-c2ccccc2N1` [KP, Kenpaullone] the “dose of maximal effect / optimal dose to increase TH+ cell numbers” value [1] was 15 µM, the “increase in the number of TH positive cells (maximal effect)” value [1] was “three” and the GSK-3β protein levels (GSK-3β) was “decreases”. For the same compound, the “immature neurons (TuJ1 positive cells/Hoechst 33258)” value (VM precursors) was “increased”, the “number of mature neurons (MAP2 positive cells/Hoechst 33258)” value (VM precursors) was “increase” and the “proportion of TH+ DA neurons (TH+/TuJ1+ cells)” value (VM precursors) was “marked increase”. The “total number of astrocytes (GFAP positive cells/Hoechst 33258)” value (VM precursors) was “increased”, the “active Caspase 3 immunostaining” value (VM precursor cultures) was “not modified” and the “proliferation (BrdU incorporation)” value (VM precursor cultures) was “not affected”. For the same compound, the “total number of VM cells (Hoechst 33258 staining)” value (VM precursor cultures) was “did not change”, the “morphological differentiation of MN9D cells” value (MN9D cells; 15 μM KP for four days) was “induced morphological differentiation” and the “neurite extension of MN9D cells” value (MN9D cells; KP treatment) was “increase”. For the same compound, the “proliferation (BrdU incorporation)” value (MN9D cells; [2]) was “did not alter”, the “total number of cells (Hoechst 33258)” value (MN9D cells; [2]) was “did not alter” and the “c-ret mRNA levels” value (c-ret mRNA) was “upregulated”. For the same compound, the “increase in the number of TH/Nurr1 double positive cells” value (VM Nurr1+ precursors) was 2.5 fold, the β-catenin protein levels (β-catenin) was “increased” and the TH protein levels (TH) was “increased”. For the same compound, the “kinase selectivity at the concentrations used” value (GSK-3β and CDKs) was “GSK-3β selective inhibitor”.
